Values of other authors as cited in patent EP0611214A2, “Acidic composition and process of using same” (MINNESOTA MINING AND MANUFACTURING COMPANY, priority 1993, dated 1994).

Details: in water, as reported in U.S. Pat. No. 5,080,822, column 4

Row | SMILES | aqueous ambient temperature solubility in weight percent
1 | CC(O)COc1ccccc1 (centres unmarked) [1-phenoxy-2-propanol] | 1.1 weight percent
2 | OCCc1ccccc1 [8-phenylethanol] | 1.6 weight percent
3 | CC(=O)c1ccccc1 [acetophenone] | 0.5 weight percent

The next lines start with the values.

Row | aqueous ambient temperature solubility in weight percent | SMILES
4 | 2.3 weight percent | OCCOc1ccccc1 [2-phenoxyethanol]
5 | 4.4 weight percent | OCc1ccccc1 [benzyl alcohol]
